Laboratory results: the supplement of paper PMC10307832

Tests used:
Test in all cases: relative viability (nuclei count vs DMSO), 5 days (fraction); higher = more cells survive
SW 900 = tested on: SW 900
Outline: (§1)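 For relative viability, nuclei counts in treated wells were divided by those in vehicle wells. Lung cancer cell lines had been pin-tool dosed in 1536-well plates the day after seeding and cultured for 5 days, then fixed and stained in one step (final 0.05% Triton X-100, 1% formaldehyde, 1 ug/ml Hoechst) and imaged at 4×. Doses were one drug alone or a fixed anchor-drug dose plus five library-drug doses (not always all listed) in √10 steps, and values are duplicate-plate medians.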

NCI-H1792 = tested on: NCI-H1792
Outline: as §1

NCI-H1437 = tested on: NCI-H1437
Outline: as §1

NCI-H596 = tested on: NCI-H596
Outline: as §1

NCI-H1650 = tested on: NCI-H1650
Outline: as §1

NCI-H650 = tested on: NCI-H650
Outline: as §1

HCC-15 = tested on: HCC-15
Outline: as §1

A-427 = tested on: A-427
Outline: as §1

NCI-H2342 = tested on: NCI-H2342
Outline: as §1

EKVX = tested on: EKVX
Outline: as §1

NCI-H838 = tested on: NCI-H838
Outline: as §1

HCC-44 = tested on: HCC-44
Outline: as §1

COR-L23 = tested on: COR-L23
Outline: as §1

NCI-H1975 = tested on: NCI-H1975
Outline: as §1

BEN = tested on: BEN
Outline: as §1

HCC-827 = tested on: HCC-827
Outline: as §1

201T = tested on: 201T
Outline: as §1

SK-MES-1 = tested on: SK-MES-1
Outline: as §1

HARA = tested on: HARA
Outline: as §1

NCI-H23 = tested on: NCI-H23
Outline: as §1

NCI-H441 = tested on: NCI-H441
Outline: as §1

NCI-H358 = tested on: NCI-H358
Outline: as §1

`Cc1sc2c(c1C)C(c1ccc(Cl)cc1)=N[C@@H](CC(=O)OC(C)(C)C)c1nnc(C)n1-2` [JQ1] + Nc1nc2[nH]cc(CCc3ccc(C(=O)N[C@@H](CCC(=O)O)C(=O)O)cc3)c2c(=O)[nH]1 [Pemetrexed] (partner 0.2 µM) showed a relative viability (SW 900; first compound 0.04 µM) of 0.472, a relative viability (SW 900; first compound 0.1265 µM) of 0.477 and a relative viability (SW 900; first compound 0.4 µM) of 0.349. For the same molecule, the relative viability (SW 900; first compound 1.265 µM) was 0.19, the relative viability (SW 900; first compound 4 µM) was 0.195 and the relative viability (NCI-H1792; first compound 0.04 µM) was 0.705. The relative viability (NCI-H1792; first compound 0.1265 µM) was 0.699, the relative viability (NCI-H1792; first compound 0.4 µM) was 0.434 and the relative viability (NCI-H1792; first compound 1.265 µM) was 0.15. It also gave a relative viability (NCI-H1792; first compound 4 µM) of 0.0524, a relative viability (NCI-H1437; first compound 0.04 µM) of 0.303 and a relative viability (NCI-H1437; first compound 0.1265 µM) of 0.309. The relative viability (NCI-H1437; first compound 0.4 µM) was 0.244, the relative viability (NCI-H1437; first compound 1.265 µM) was 0.201 and the relative viability (NCI-H1437; first compound 4 µM) was 0.208. It also gave a relative viability (NCI-H596; first compound 0.04 µM) of 0.491, a relative viability (NCI-H596; first compound 0.1265 µM) of 0.461 and a relative viability (NCI-H596; first compound 0.4 µM) of 0.386. It also gave a relative viability (NCI-H596; first compound 1.265 µM) of 0.335, a relative viability (NCI-H596; first compound 4 µM) of 0.367 and a relative viability (NCI-H1650; first compound 0.04 µM) of 0.365. For the same molecule, the relative viability (NCI-H1650; first compound 0.1265 µM) was 0.293, the relative viability (NCI-H1650; first compound 0.4 µM) was 0.335 and the relative viability (NCI-H1650; first compound 1.265 µM) was 0.202. For the same molecule, the relative viability (NCI-H1650; first compound 4 µM) was 0.183, the relative viability (NCI-H650; first compound 0.04 µM) was 0.886 and the relative viability (NCI-H650; first compound 0.1265 µM) was 0.664. It also gave a relative viability (NCI-H650; first compound 0.4 µM) of 0.839, a relative viability (NCI-H650; first compound 1.265 µM) of 0.6 and a relative viability (NCI-H650; first compound 4 µM) of 0.276. For the same molecule, the relative viability (HCC-15; first compound 0.04 µM) was 0.238, the relative viability (HCC-15; first compound 0.1265 µM) was 0.224 and the relative viability (HCC-15; first compound 0.4 µM) was 0.19. For the same molecule, the relative viability (HCC-15; first compound 1.265 µM) was 0.182, the relative viability (HCC-15; first compound 4 µM) was 0.199 and the relative viability (A-427; first compound 0.04 µM) was 0.988. The relative viability (A-427; first compound 0.1265 µM) was 0.794, the relative viability (A-427; first compound 0.4 µM) was 0.994 and the relative viability (A-427; first compound 1.265 µM) was 0.914. The relative viability (A-427; first compound 4 µM) was 0.639, the relative viability (NCI-H2342; first compound 0.04 µM) was 0.805 and the relative viability (NCI-H2342; first compound 0.1265 µM) was 0.73. The relative viability (NCI-H2342; first compound 0.4 µM) was 0.852, the relative viability (NCI-H2342; first compound 1.265 µM) was 0.781 and the relative viability (NCI-H2342; first compound 4 µM) was 0.617. For the same molecule, the relative viability (EKVX; first compound 0.04 µM) was 0.351, the relative viability (EKVX; first compound 0.1265 µM) was 0.396 and the relative viability (EKVX; first compound 0.4 µM) was 0.304. The relative viability (EKVX; first compound 1.265 µM) was 0.362, the relative viability (EKVX; first compound 4 µM) was 0.264 and the relative viability (NCI-H838; first compound 0.04 µM) was 0.24. It also gave a relative viability (NCI-H838; first compound 0.1265 µM) of 0.167, a relative viability (NCI-H838; first compound 0.4 µM) of 0.176 and a relative viability (NCI-H838; first compound 1.265 µM) of 0.177. It also gave a relative viability (NCI-H838; first compound 4 µM) of 0.17, a relative viability (HCC-44; first compound 0.04 µM) of 0.59 and a relative viability (HCC-44; first compound 0.1265 µM) of 0.617. It also gave a relative viability (HCC-44; first compound 0.4 µM) of 0.692, a relative viability (HCC-44; first compound 1.265 µM) of 0.58 and a relative viability (HCC-44; first compound 4 µM) of 0.444. The relative viability (COR-L23; first compound 0.04 µM) was 0.21, the relative viability (COR-L23; first compound 0.1265 µM) was 0.214 and the relative viability (COR-L23; first compound 0.4 µM) was 0.196. For the same molecule, the relative viability (COR-L23; first compound 1.265 µM) was 0.159, the relative viability (COR-L23; first compound 4 µM) was 0.147 and the relative viability (NCI-H1975; first compound 0.04 µM) was 0.284. For the same molecule, the relative viability (NCI-H1975; first compound 0.1265 µM) was 0.233, the relative viability (NCI-H1975; first compound 0.4 µM) was 0.234 and the relative viability (NCI-H1975; first compound 1.265 µM) was 0.19. For the same molecule, the relative viability (NCI-H1975; first compound 4 µM) was 0.173, the relative viability (BEN; first compound 0.04 µM) was 0.7 and the relative viability (BEN; first compound 0.1265 µM) was 0.523. It also gave a relative viability (BEN; first compound 0.4 µM) of 0.67, a relative viability (BEN; first compound 1.265 µM) of 0.518 and a relative viability (BEN; first compound 4 µM) of 0.384. It also gave a relative viability (HCC-827; first compound 0.04 µM) of 0.262, a relative viability (HCC-827; first compound 0.1265 µM) of 0.255 and a relative viability (HCC-827; first compound 1.265 µM) of 0.211. For the same molecule, the relative viability (HCC-827; first compound 4 µM) was 0.247, the relative viability (201T; first compound 0.04 µM) was 0.325 and the relative viability (201T; first compound 0.4 µM) was 0.293. It also gave a relative viability (201T; first compound 1.265 µM) of 0.274, a relative viability (201T; first compound 4 µM) of 0.23 and a relative viability (SK-MES-1; first compound 0.04 µM) of 0.967. The relative viability (SK-MES-1; first compound 0.1265 µM) was 0.686, the relative viability (SK-MES-1; first compound 0.4 µM) was 0.397 and the relative viability (SK-MES-1; first compound 1.265 µM) was 0.289. The relative viability (SK-MES-1; first compound 4 µM) was 0.235, the relative viability (HARA; first compound 0.04 µM) was 0.249 and the relative viability (HARA; first compound 0.1265 µM) was 0.271. The relative viability (HARA; first compound 0.4 µM) was 0.235, the relative viability (HARA; first compound 1.265 µM) was 0.217 and the relative viability (HARA; first compound 4 µM) was 0.185. For the same molecule, the relative viability (NCI-H23; first compound 0.04 µM) was 0.677, the relative viability (NCI-H23; first compound 0.1265 µM) was 0.67 and the relative viability (NCI-H23; first compound 0.4 µM) was 0.41. For the same molecule, the relative viability (NCI-H23; first compound 1.265 µM) was 0.208, the relative viability (NCI-H23; first compound 4 µM) was 0.171 and the relative viability (NCI-H441; first compound 0.04 µM) was 0.271. For the same molecule, the relative viability (NCI-H441; first compound 0.1265 µM) was 0.263, the relative viability (NCI-H441; first compound 0.4 µM) was 0.273 and the relative viability (NCI-H441; first compound 1.265 µM) was 0.213. The relative viability (NCI-H441; first compound 4 µM) was 0.186, the relative viability (NCI-H358; first compound 0.04 µM) was 0.185 and the relative viability (NCI-H358; first compound 0.1265 µM) was 0.198. It also gave a relative viability (NCI-H358; first compound 0.4 µM) of 0.199, a relative viability (NCI-H358; first compound 1.265 µM) of 0.16 and a relative viability (NCI-H358; first compound 4 µM) of 0.153.
